Data published in patent publication US11655239B2 (SHANGHAI INSTITUTE OF MATERIAL MEDICA, CHINESE ACADEMY OF …, priority 2019, dated 2023).

Key:
[1] = biological target: C-Kit (Homo sapiens (Human), UniProt P10721); experiment: Enzyme selectivity test (ELISA), C-Kit; format: biochemical
Description: (§1) 1) Enzyme reaction substrate Poly(Glu, Tyr) 4:1 was diluted to 20 μg/mL with potassium-free PBS (10 mM sodium phosphate buffer, 150 mM NaCl, pH 7.2-7.4), and the microtiter plate was coated with 125 μL/well and placed at 37° C. for 12-16 hours of reaction. The liquid in the well was discard. The plate was washed three times with T-PBS (potassium-free PBS containing 0.1% Tween-20, 200 μL/well), 5 minutes each time. The ELISA plate was dried in an oven at 37° C. for 1 to 2 hours.
(§2) 2) Reaction buffer (50 mM HEPES pH 7.4, 50 mM MgCl2, 0.5 mM MnCl2, 0.2 mM Na3VO4, 1 mM DTT) diluted ATP solution (49 μL) was added to each well, 1 μL of the compound to be tested was added to each well, and then 50 μL of DDR2 kinase domain recombinant protein diluted in the reaction buffer was added to start the reaction. Two control wells without ATP were set in each experiment. The plate placed on a shaker (100 rpm) at 37° C. for 1 hour of reaction. The liquid in the well was discarded and the plate was washed three times with T-PBS.
(§3) 3) Antibody PY99 dilution solution (the antibody was diluted 1:500 with T-PBS containing BSA 5 mg/mL) was added at 100 μL/well, and shaken on a shaker at 37° C. for 0.5 hour of reaction. The liquid in the well was discarded and the plate was washed three times with T-PBS.
(§4) 4) Horseradish peroxidase labeled goat anti-murine secondary antibody dilution solution (the antibody is diluted 1:2000 with T-PBS containing BSA 5 mg/ml) was added at 100 μL/well, and shaken on a shaker at 37° C. for 0.5 hour of reaction. The liquid in the well was discarded and the plate was washed three times with T-PBS.
(§5) 5) 2 mg/ml of OPD color developing solution [diluted with 0.1 M citric acid-sodium citrate buffer (pH=5.4) containing 0.03% H2O2] was added at 100 μL/well and reacted for 1 to 10 minutes at 25° C. in the dark.
(§6) 6) 2M H2SO4 was added at 50 μL/well to stop the reaction, and a tunable wavelength microplate reader VERSAmax was used for reading at a wavelength of 490 nm.
(§7) The IC50 value was obtained by four-parameter regression using the software that came with the microplate reader. […]

[2] = biological target: EGFR (Homo sapiens (Human), UniProt P00533); experiment: Enzyme selectivity test (ELISA), EGFR; format: biochemical
Description: as §1, §2, §3, §4, §5, §6, §7

[3] = biological target: ErbB2 (Homo sapiens (Human), UniProt P04626); experiment: Enzyme selectivity test (ELISA), ErbB2; format: biochemical
Description: as §1, §2, §3, §4, §5, §6, §7

[4] = test system: pulmonary fibrosis induced by bleomycin in mice; experiment: mRNA levels of fibrosis-related markers in lung tissue (qRT-PCR); format: in vivo, mouse; details: 60, 90 mg/kg
Description: About 30 mg of cryopreserved lung tissue was weighed and homogenized and lysed by adding 200 μL of Trizol (Takara, 9109 #). The fluid after the lysis in the well was collected by the RNA sterilization-grade pipette tip and transferred to the corresponding sterile EP tube. […] of chloroform was added, shaken vigorously for 30 sec, and centrifuged for 15 minutes in a centrifuge at 4° C. at 12000 rpm. The upper aqueous layer was transferred to a new EP tube, an equal volume of isopropanol was used to precipitate the RNA in the aqueous phase, and the tube was allowed to stand at −20° C. for more than 1 hr. And then the tube was centrifuged for 15 min at 4° C. at 12000 rpm, and the supernatant was discarded. 75% ethanol was added to wash the RNA pellet, and then the tube was centrifuged for 15 min at 4° C. at 12000 rpm, and the supernatant was discarded. The tube was placed at room temperature for 10-20 min to dry the RNA pellet. 25-200 μL of RNase-free water was added for dissolution and stored at −80° C.
PrimeScript™ RT Master Mix (Takara, RR036A) was selected for mRNA reverse transcription. Please refer to the instructions for the system. In short, 1 μg of mRNA was added to a 20 μL system, mixed and then kept at a constant temperature in a 37° C. water bath for 15 minutes, and then the enzyme was inactivated at 85° C. for 5 seconds. After centrifugation, double distilled water was used to dilute 10 times.
Q-PCR technology used 2×SYBR Green qPCR Master Mix (B21202, Biomake), and the reaction system could be prepared according to the instruction (10 μL of 2×SYBGreen, 8.8 μL of cDNA template, 1.2 μL of 5 μM primer Mix). The reaction conditions are: pre-denaturation at 95° C. for 5 min, denaturation at 95° C. for 30 sec, annealing at 60° C. for 30 sec, and extension at 72° C. for 30 sec, the number of reaction cycles is 40 cycles.
The experiment used qRT-PCR technology to determine the mRNA levels of fibrosis-related markers in lung tissue.
The experimental method was the same as that for the evaluation of the mRNA levels of inflammatory cytokines.

Sequence of C-Kit (P10721 26-976): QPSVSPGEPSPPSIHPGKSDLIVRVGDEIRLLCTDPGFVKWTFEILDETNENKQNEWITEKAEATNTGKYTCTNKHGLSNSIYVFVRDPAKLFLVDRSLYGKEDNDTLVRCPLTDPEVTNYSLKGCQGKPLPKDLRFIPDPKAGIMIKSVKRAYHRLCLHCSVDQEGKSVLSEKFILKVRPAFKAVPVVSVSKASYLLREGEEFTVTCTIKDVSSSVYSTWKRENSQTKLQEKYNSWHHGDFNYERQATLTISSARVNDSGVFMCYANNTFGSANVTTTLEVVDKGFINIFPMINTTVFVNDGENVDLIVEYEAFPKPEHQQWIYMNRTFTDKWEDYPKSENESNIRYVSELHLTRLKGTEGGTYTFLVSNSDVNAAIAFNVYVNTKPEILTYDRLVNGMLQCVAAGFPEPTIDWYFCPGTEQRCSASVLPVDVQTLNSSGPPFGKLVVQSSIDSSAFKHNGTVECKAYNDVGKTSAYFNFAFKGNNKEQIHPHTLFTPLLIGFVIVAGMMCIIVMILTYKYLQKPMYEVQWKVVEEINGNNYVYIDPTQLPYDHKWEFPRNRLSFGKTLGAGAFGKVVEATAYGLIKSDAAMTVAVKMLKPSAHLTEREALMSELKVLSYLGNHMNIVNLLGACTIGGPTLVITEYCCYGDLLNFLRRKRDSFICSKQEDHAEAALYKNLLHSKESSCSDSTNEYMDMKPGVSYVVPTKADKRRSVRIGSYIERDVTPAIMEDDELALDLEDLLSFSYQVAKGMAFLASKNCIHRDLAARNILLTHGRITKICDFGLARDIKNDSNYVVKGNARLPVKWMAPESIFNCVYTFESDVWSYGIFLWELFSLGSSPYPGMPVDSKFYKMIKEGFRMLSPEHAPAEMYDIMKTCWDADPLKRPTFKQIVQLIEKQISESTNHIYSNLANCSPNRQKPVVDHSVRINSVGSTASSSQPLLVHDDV
Sequence of ErbB2 (P04626 23-1255, species assumed): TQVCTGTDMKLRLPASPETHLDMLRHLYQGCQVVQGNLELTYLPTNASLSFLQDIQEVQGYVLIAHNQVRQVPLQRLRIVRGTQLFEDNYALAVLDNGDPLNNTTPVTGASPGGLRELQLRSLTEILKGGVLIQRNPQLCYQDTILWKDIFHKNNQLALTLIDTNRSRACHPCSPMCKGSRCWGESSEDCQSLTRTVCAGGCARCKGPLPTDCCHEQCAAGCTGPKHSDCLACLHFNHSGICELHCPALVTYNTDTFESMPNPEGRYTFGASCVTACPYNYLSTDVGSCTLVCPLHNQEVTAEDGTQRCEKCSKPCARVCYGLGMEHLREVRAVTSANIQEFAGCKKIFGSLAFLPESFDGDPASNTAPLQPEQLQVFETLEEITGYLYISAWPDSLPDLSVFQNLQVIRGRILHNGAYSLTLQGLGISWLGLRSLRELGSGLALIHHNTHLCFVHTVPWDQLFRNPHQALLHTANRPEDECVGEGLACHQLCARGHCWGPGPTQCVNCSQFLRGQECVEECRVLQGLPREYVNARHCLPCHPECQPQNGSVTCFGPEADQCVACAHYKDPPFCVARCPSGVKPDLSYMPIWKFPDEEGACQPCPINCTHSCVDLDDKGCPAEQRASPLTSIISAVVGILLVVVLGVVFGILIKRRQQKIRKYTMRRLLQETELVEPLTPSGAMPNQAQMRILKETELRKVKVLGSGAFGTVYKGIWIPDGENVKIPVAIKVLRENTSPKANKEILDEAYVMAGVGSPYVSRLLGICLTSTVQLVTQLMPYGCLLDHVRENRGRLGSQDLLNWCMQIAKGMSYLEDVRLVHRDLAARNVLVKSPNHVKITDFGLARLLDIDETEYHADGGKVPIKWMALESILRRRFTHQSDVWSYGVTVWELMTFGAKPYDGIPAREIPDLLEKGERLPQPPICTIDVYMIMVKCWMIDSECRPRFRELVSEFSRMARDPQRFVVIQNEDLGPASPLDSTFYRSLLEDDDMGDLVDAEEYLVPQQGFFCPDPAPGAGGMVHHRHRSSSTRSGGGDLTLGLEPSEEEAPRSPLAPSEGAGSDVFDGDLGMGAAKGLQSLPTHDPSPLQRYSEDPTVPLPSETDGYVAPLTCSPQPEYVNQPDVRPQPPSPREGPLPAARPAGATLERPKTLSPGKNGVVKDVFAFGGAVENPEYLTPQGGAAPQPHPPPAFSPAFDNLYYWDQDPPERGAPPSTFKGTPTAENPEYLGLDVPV
Sequence of EGFR (P00533 25-1210, species assumed): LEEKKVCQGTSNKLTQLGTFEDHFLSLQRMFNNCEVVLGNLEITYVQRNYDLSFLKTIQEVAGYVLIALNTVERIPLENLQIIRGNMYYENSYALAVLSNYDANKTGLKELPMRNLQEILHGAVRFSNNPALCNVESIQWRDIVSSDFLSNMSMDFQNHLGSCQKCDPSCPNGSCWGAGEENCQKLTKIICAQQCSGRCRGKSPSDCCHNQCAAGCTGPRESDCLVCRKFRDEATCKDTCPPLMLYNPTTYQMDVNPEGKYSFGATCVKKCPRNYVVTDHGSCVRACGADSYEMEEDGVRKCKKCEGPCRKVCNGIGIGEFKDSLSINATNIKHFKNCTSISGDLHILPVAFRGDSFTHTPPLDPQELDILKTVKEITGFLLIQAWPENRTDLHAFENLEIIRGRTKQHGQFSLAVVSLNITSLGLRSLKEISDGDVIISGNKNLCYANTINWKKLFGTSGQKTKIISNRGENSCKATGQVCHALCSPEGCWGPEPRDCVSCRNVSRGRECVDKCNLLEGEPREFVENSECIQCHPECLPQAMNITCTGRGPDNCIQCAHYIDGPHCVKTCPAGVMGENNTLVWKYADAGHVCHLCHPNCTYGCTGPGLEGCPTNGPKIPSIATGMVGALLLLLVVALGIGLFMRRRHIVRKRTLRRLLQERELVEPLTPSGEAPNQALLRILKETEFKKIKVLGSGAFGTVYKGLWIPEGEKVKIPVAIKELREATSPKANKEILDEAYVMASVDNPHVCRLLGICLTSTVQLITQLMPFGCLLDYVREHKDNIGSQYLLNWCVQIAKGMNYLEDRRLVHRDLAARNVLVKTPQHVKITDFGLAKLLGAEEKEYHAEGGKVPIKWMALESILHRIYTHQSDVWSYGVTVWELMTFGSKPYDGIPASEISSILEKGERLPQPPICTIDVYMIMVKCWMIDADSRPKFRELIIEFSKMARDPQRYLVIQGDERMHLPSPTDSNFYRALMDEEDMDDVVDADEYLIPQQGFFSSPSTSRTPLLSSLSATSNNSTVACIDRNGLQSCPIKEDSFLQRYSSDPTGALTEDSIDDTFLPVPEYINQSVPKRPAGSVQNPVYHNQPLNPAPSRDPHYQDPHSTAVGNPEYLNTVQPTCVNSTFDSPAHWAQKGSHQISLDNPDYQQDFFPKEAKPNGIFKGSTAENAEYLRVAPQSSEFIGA

`O=C(Nc1cccc(C(F)(F)F)c1)c1ccc(C2CC2)c(-c2ccc3nc(Nc4cnn(C5CC5)c4)ncc3c2)c1` [Compound S15, 4-cyclopropyl-3-(2-((1-cyclopropyl-1H-pyrazol-4-yl)amino)quinazolin-6-yl)-N-(3-(trifluoromethyl)phenyl)benzamide] gave an IC50 [1] greater than 1000 nM, an IC50 [2] greater than 1000 nM and an IC50 [3] greater than 1000 nM. The “reduction of expression (mRNA) of Collagen1-α1” value [4] was “about 90%”, the “reduction of expression (mRNA) of TGF-β1” value [4] was “about 90%” and the “reduction of expression (mRNA) of α-SMA” value [4] was “about 90%”.
